Data from US4585866A, “Treatment of migraine with substituted tropyl benzoate derivatives” (Merrell Dow Pharmaceuticals Inc., priority 1984, dated 1986).

Assays:
[1] = biological target: T1, 5-HT M-receptor (Oryctolagus cuniculus, UniProt A0A5F9C9J3); experiment: pA2 against 5-HT in isolated rabbit heart; format: cell-based; settings: isolated rabbit heart; negative log of molar concentration of antagonist reducing effect of twice the ED50 of 5-HT to that of the ED50; read-out: pA2 5-HT (converted)
T1 construct: determining their pA2 values in the isolated rabbit heart; from tissue; host or cells: isolated rabbit heart (receptor on the cardiac neurones)
T1 sequence (A0A5F9C9J3 1-494): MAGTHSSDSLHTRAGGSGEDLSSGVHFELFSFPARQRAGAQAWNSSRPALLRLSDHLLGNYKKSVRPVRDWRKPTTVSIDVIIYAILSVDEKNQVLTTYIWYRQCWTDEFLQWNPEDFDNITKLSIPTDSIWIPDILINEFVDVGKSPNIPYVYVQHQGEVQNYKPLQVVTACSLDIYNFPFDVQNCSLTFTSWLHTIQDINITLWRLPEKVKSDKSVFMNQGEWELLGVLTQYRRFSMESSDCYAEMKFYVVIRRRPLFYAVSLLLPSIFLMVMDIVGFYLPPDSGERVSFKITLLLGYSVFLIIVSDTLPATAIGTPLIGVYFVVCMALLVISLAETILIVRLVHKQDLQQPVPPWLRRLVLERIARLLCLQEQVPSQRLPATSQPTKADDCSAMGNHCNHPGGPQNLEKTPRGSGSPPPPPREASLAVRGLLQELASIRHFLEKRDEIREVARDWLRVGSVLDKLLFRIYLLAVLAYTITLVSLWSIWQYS
Method: (§1) The activity of the compounds against 5-HT can be assessed by determining their pA2 values in the isolated rabbit heart as described by J. R. Fozard et al, Eur. J. Pharmacol., 59, 195-210 (1979). In the method described, the molar concentration of antagonist which reduces the effects of twice the ED50 of 5-HT to that of the ED50 in the absence of antagonist is determined. The pA2 value is the negative logarithm of said molar concentrations.

[2] = test system: Von Bezold-Jarisch Reflex (5-HT M-receptor); experiment: Antagonism of the Von Bezold-Jarisch reflex evoked by 5-HT in the anaesthetized rat; format: in vivo, rat (male Sprague-Dawley); settings: comparison in words, i.v.
From the text: The activity of these compounds against 5-HT can be assessed in vivo by measurement of the effect of the compound on the Von Bezold-Jarisch Reflex induced by 5-HT injected intravenously into the rat (A. S. Paintal, Physiol. Rev. 53, 159-227, 1973). The transient caridac slowing arises from an increased afferent vagus activity arising from stimulation by 5-HT of sensory afferent fibres in and around the heart (see Example 3).
Antagonism of the Von Bezold-Jarisch reflex evoked by 5-HT in the anaesthetized rat was measured for tropyl 3,5-dimethoxybenzoate (A), tropyl 3,5-dimethylbenzoate (B) and tropyl 3,5-dichlorobenzoate (C) using the following method.
Male Sprague-Dawley rats weighing 250-300 g are anaesthetized with urethane, 1.25 g/kg injected intraperitoneally and set up for recording blood pressure and heart rate as described in J. R. Fozard et al, J. Cardiovas. Pharmacol. 2, 229-245 (1980). A submaximal dose of 5-HT ([…]) is given repeatedly into the cannulated jugular vein and changes in heart rate are quantified. Antagonists are given intravenously and the doses required to just inhibit the response to 5-HT (threshold dose) or to inhibit the response to 5-HT by 50% (ED50) are determined.

[3] = LD50 in the mouse; format: in vivo; settings: in vivo, mouse
[4] = test system: mouse; experiment: LD50 in the mouse; format: in vivo; settings: as shown by LD50 values in the mouse and rat
[5] = LD50 in the rat; settings: in vivo, iv
[6] = biological target: T2, rabbit heart (5-HT M receptor) (Oryctolagus cuniculus, UniProt A0A5F9C9J3); experiment: Inhibition of standard response to 5-HT, rabbit heart; format: cell-based; settings: rabbit heart, agonist 5-HT; read-out: Concentration to inhibit standard response to stimulants by 50% (IC50)
T2 construct: RABBIT HEART; from tissue; host or cells: rabbit heart
T2 sequence (A0A5F9C9J3 1-494): T1 sequence (A0A5F9C9J3 1-494)
Method: as §1
(§2) A selection of classical in vitro pharmacological test preparations (rat uterus, rat fundus, guinea-pig ileum, guinea-pig taenia caeci) were set up according to well-established procedures (see "Pharmacological Experiments on Isolated Preparations" Staff of the Department of Pharmacology, University of Edinburgh, Livingstone, Edinburgh 1970). Various spasmogens were used to elicit contraction of these tissues though mechanisms other than the 5-HT "M" receptor. The concentrations of tropyl 3,5-dimethoxybenzoate (A), tropyl 3,5-dimethylbenzoate (B) and tropyl 3,5-dichlorobenzoate (C) which reduced the effects of a submaximal dose of agonist by 50% were determined (IC50). The results are set forth in Table VI below in which the compounds are identified by the reference letters used above.

[7] = test system: guinea-pig ileum; experiment: Inhibition of standard response to carbachol, guinea-pig ileum; format: cell-based; settings: Cavia porcellus, carbachol agonist instead of acetylcholine, read-out: Concentration to inhibit standard response to stimulants by 50% (IC50)
From the text: as §2
**Carbachol agonist instead of acetylcholine

[8] = test system: guinea-pig taenia caeci; experiment: Inhibition of standard response to calcium, guinea-pig taenia caeci; format: cell-based; settings: Cavia porcellus; guinea-pig taenia caeci in potassium-depolarized Tyrode solution, agonist calcium; read-out: Concentration to inhibit standard response to stimulants by 50% (IC50)
From the text: as §2
*In potassiumdepolarized Tyrode solution

[9] = biological target: T1, 5-HT M-receptor; settings: cited from earlier work
[10] = test system: acute migraine attack; settings: slow intravenous injection, 10 mg; J. B. Hughes, Med. J. Aust. 1977; cited from earlier work

SMILES | Kb [1] [µM] | potency relative to metoclopramide [2] | LD50 ([3]; ip) [mg/kg] | LD50 ([3]; iv) [mg/kg] | LD50 ([3]; oral) [mg/kg] | toxicity in words [4] | LD50 [5] [mg/kg] | IC50 [6] [µM] | IC50 [7] [µM] | IC50 [8] [µM] | potency as 5-HT M-receptor antagonist ([9]; literature) | pA2 value (5-HT) ([9]; reported by J. R. Fozard et al, Eur. J. Pharmacol. 1979 / 1978) | relief of acute migraine attack [10]
Cc1cc(C)cc(C(=O)O[C@H]2C[C@H]3CC[C@@H](C2)N3C)c1 [tropyl 3,5-dimethylbenzoate] | 0.001 | many times more potent than metoclopramide | 47 | 17 | 116 | relatively non-toxic | 9 | 0.00103 | 9.59 | 34.2 | – | – | –
CCN(CC)CCNC(=O)c1cc(Cl)c(N)cc1OC [metoclopramide] | – | – | – | – | – | – | – | – | – | – | potent 5-HT M-receptor antagonist | 7.2 | immediate relief of acute migraine attack
